In patent publication US20100151050A1, “Method for evaluation of compound using RSK1” (priority 2005, published 2010):

Tested on: p53-negative cells (TOV21G-shp53, A549-shp53, MCF7-shp53, U2OS-shp53, dominant negative U2OS-mtp53)
Experiment: Cell viability by MTT assay after RSK1 siRNA lipofection, p53-negative cells
Assay type: cell-based
Settings: p53-negative cells with siRNA of RSK1, 96 hours
Description: First, as p53-positive cells, prepared were TOV21G, A549, MCF7 and U2OS cells. As p53-negative cells, prepared were TOV21G-shp53, A549-shp53, MCF7-shp53 and U2OS-shp53 by introducing shRNA of p53 into the above-mentioned four types of cells. Further, dominant negative U2OS-mtp53 cells were also prepared by introducing V157Fp53 into U2OS cells.
Next, siRNA of RSK1 was introduced into the above cells according to a lipofection method, and the cells were incubated in a 10% FCS-containing D-MEM medium (10% FCS-containing MacCoy's 5A medium for U2OS cells) in the presence or absence of cisplatin (CDDP) for 96 hours, and then their viability was measured through MTT assay. As the siRNA of RSK1, used was a mixture of the following three sequences.

N.N.[Cl][Pt][Cl] [cisplatin]
effect of cisplatin under RSK1 expression inhibition: enhanced
